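The compound was tested at five concentrations on cells cultured in 96-well plates, with a 48-hour exposure period. GI50: concentration for 50% inhibition of growth.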 Activity calls are given as the source filed them. Cut-off read from the data, not from the text of the source: active = GI50 up to about 1.1 µM and inactive = higher.
Key:
Assay in all cases: DTP human tumour cell line panel, 48 h
HCT-116 = system: HCT-116
MDA-N = system: MDA-N
OVCAR-5 = system: OVCAR-5
HCC 2998 = system: HCC 2998
OVCAR-3 = system: OVCAR-3
MDA-MB-435 = system: MDA-MB-435
EKVX = system: EKVX
HT-29 = system: HT-29
HCT-15 = system: HCT-15
A498 = system: A498
BT-549 = system: BT-549
NCI-H522 = system: NCI-H522
SW-620 = system: SW-620
SNB-75 = system: SNB-75
UACC-62 = system: UACC-62
SK-OV-3 = system: SK-OV-3
K562 = system: K562
Malme-3M = system: Malme-3M
U-251 = system: U-251

Row | Compound | GI50 (HCT-116) | GI50 (MDA-N) | GI50 (OVCAR-5) | GI50 (HCC 2998) | GI50 (OVCAR-3) | GI50 (MDA-MB-435) | GI50 (EKVX) | GI50 (HT-29) | GI50 (HCT-15) [µM] | GI50 (A498) | GI50 (BT-549) | GI50 (NCI-H522) | GI50 (SW-620) | GI50 (SNB-75) | GI50 (UACC-62) | GI50 (SK-OV-3) | GI50 (K562) | GI50 (Malme-3M) | GI50 (U-251)
1 | CC(=O)Nc1ccc2c(C)c3c4ccccc4n(C)c3nc2n1 | 7.1 µM (inactive) | 17.1 µM (inactive) | 18.6 µM (inactive) | 16.4 µM (inactive) | 26.1 µM (inactive) | 18.7 µM (inactive) | 29 µM (inactive) | 14.8 µM (inactive) | 11.4 | 18.1 µM (inactive) | 31.3 µM (inactive) | 16.1 µM (inactive) | 13.2 µM (inactive) | 14.4 µM (inactive) | 20.1 µM (inactive) | – | – | – | –
2 | O=c1cn[nH]c(=S)n1/N=C/c1c[nH]c2ccccc12 | > 100 µM (inactive) | 87.1 µM (inactive) | > 100 µM (inactive) | > 100 µM (inactive) | > 100 µM (inactive) | 58.5 µM (inactive) | > 100 µM (inactive) | > 100 µM (inactive) | 31.4 | > 100 µM (inactive) | 72.6 µM (inactive) | 39.1 µM (inactive) | 45.3 µM (inactive) | – | 78.7 µM (inactive) | > 100 µM (inactive) | 48 µM (inactive) | > 100 µM (inactive) | > 100 µM (inactive)
3 | CC(C)(C)OC(=O)NCC(CNC(=O)OC(C)(C)C)c1nc(C(N)=O)cs1 | > 100 µM (inactive) | > 100 µM (inactive) | > 100 µM (inactive) | > 100 µM (inactive) | > 100 µM (inactive) | > 100 µM (inactive) | > 100 µM (inactive) | > 100 µM (inactive) | > 100 | > 100 µM (inactive) | > 100 µM (inactive) | – | > 100 µM (inactive) | 0.818 µM (active) | > 100 µM (inactive) | > 100 µM (inactive) | > 100 µM (inactive) | > 100 µM (inactive) | > 100 µM (inactive)
4 | O=C(O)/C=c1/c2ccccc2n2nc3ccccc3c12 | 24.8 µM (inactive) | 26 µM (inactive) | 57.9 µM (inactive) | 24.1 µM (inactive) | 33.5 µM (inactive) | 31.6 µM (inactive) | 37.1 µM (inactive) | 39.3 µM (inactive) | 26.8 | 22 µM (inactive) | 37.4 µM (inactive) | 20.7 µM (inactive) | 35.6 µM (inactive) | – | 17.5 µM (inactive) | 22.8 µM (inactive) | 36.6 µM (inactive) | 25.2 µM (inactive) | 33.6 µM (inactive)
5 | CCC1C(C#N)=C(N)OC2=C1C(=O)CC(C)(C)C2 (stereo not given) | > 100 µM (inactive) | > 100 µM (inactive) | > 100 µM (inactive) | > 100 µM (inactive) | > 100 µM (inactive) | > 100 µM (inactive) | > 100 µM (inactive) | > 100 µM (inactive) | > 100 | > 100 µM (inactive) | > 100 µM (inactive) | > 100 µM (inactive) | > 100 µM (inactive) | – | > 100 µM (inactive) | > 100 µM (inactive) | – | > 100 µM (inactive) | > 100 µM (inactive)
6 | Cc1ccccc1NC(=O)/C(C#N)=N\Nc1[nH]cnc1C(N)=O | 4.37 µM (inactive) | 12.9 µM (inactive) | 40.3 µM (inactive) | 2.92 µM (inactive) | 2.42 µM (inactive) | 4.68 µM (inactive) | 66.8 µM (inactive) | 38.6 µM (inactive) | 19.3 | – | > 100 µM (inactive) | 18 µM (inactive) | 2.89 µM (inactive) | 54.5 µM (inactive) | 12.9 µM (inactive) | 1.59 µM (inactive) | 1.89 µM (inactive) | 4.62 µM (inactive) | 37.1 µM (inactive)
7 | Cc1ccc(S(=O)(=O)OCCC2CN(C(=O)OCc3ccccc3)C(C)(C)O2)cc1 (stereo not given) | 7.23 µM (inactive) | 12.5 µM (inactive) | > 100 µM (inactive) | 6.07 µM (inactive) | 39.6 µM (inactive) | 3.61 µM (inactive) | 18.3 µM (inactive) | – | 3.66 | > 100 µM (inactive) | 1.89 µM (inactive) | 2.7 µM (inactive) | 14.3 µM (inactive) | – | 10.2 µM (inactive) | > 100 µM (inactive) | 8.63 µM (inactive) | 8.2 µM (inactive) | 16.7 µM (inactive)
8 | CCCC(c1cc(C(C)(C)C)c(O)cc1C)c1cc(C(C)(C)C)c(O)cc1C | 1.91 µM (inactive) | 1.87 µM (inactive) | 2.13 µM (inactive) | 1.75 µM (inactive) | 1.81 µM (inactive) | 2.59 µM (inactive) | 2.88 µM (inactive) | 6.65 µM (inactive) | 3.35 | 2.05 µM (inactive) | 9.79 µM (inactive) | 2.33 µM (inactive) | 3.23 µM (inactive) | – | 2.09 µM (inactive) | 3.65 µM (inactive) | 2.23 µM (inactive) | 3.05 µM (inactive) | 2.65 µM (inactive)
9 | C#C[C@]1(O)CC[C@H]2[C@@H]3CCC4=C/C(=N/OC(=O)c5cccc6cc7ccccc7nc56)CC[C@@H]4[C@H]3CC[C@@]21CC | > 100 µM (inactive) | > 100 µM (inactive) | > 100 µM (inactive) | > 100 µM (inactive) | > 100 µM (inactive) | > 100 µM (inactive) | – | > 100 µM (inactive) | > 100 | > 100 µM (inactive) | > 100 µM (inactive) | – | > 100 µM (inactive) | > 100 µM (inactive) | > 100 µM (inactive) | > 100 µM (inactive) | > 100 µM (inactive) | – | > 100 µM (inactive)
10 | CCOC(=O)C(O)(NC(=O)Nc1ccc(F)cc1)C(F)(F)F (stereo not given) | > 100 µM (inactive) | > 100 µM (inactive) | > 100 µM (inactive) | > 100 µM (inactive) | – | > 100 µM (inactive) | > 100 µM (inactive) | > 100 µM (inactive) | > 100 | > 100 µM (inactive) | > 100 µM (inactive) | – | > 100 µM (inactive) | > 100 µM (inactive) | – | > 100 µM (inactive) | > 100 µM (inactive) | – | > 100 µM (inactive)
11 | Cc1ccc(C2(N3CCOCC3)OC(C)(C)c3cccc4cccc2c34)cc1 (stereo not given) | 17.1 µM (inactive) | 17.9 µM (inactive) | 15.8 µM (inactive) | – | 16 µM (inactive) | 16.9 µM (inactive) | 13 µM (inactive) | 15.5 µM (inactive) | 17 | 17.7 µM (inactive) | 17.3 µM (inactive) | 15.8 µM (inactive) | 18.2 µM (inactive) | 15.4 µM (inactive) | 13.6 µM (inactive) | 16.7 µM (inactive) | 30.2 µM (inactive) | 16.8 µM (inactive) | 16.5 µM (inactive)
12 | COc1cc(-c2oc(/C=N/c3ccccc3)c([N+](=O)[O-])c2-c2ccc(O)c(OC)c2)ccc1O | 18.4 µM (inactive) | 31 µM (inactive) | 35.5 µM (inactive) | 15 µM (inactive) | 35.4 µM (inactive) | 23.6 µM (inactive) | 25.8 µM (inactive) | 17.1 µM (inactive) | 14.4 | – | 29.6 µM (inactive) | 12.5 µM (inactive) | 22.9 µM (inactive) | 11.5 µM (inactive) | 17.9 µM (inactive) | > 41.8 µM (inactive) | 36.1 µM (inactive) | – | 23.4 µM (inactive)

Source: ChEMBL document CHEMBL1201862, “PubChem BioAssay data set” (2004)
